Tested on: pigs
Test: Intrapericardial administration of RTX alone or RTX in combination with QX-314 in anesthetized pigs; heart rate and blood pressure
Type: in vivo
Conditions: 15 mL, RTX 12.5 µg/mL, QX-314 10, 20, 30 or 40 µM where combined, aspirated after 20 minutes
Protocol: We evaluated the effects of the TRPV1 modulator RTX alone and in combination with QX-314 on cardiovascular function, specifically heart rate and blood pressure, in pigs. Animals were first sedated with telazol (4-8 mg/kg, intramuscular), intubated, and mechanically ventilated. General anesthesia was maintained with isoflurane (1-2%, inhaled). A 12-lead surface electrocardiogram and arterial blood pressure were continuously obtained using a GE Healthcare CardioLab system. Local anesthesia with 1% lidocaine was then administered to the left sternocostal angle before making a small incision. Percutaneous access into the pericardial space was obtained using a Touhy needle under fluoroscopic guidance (see FIG. 1). Contrast was used to visualize the advancement of the needle tip, and intrapericardial access was confirmed by passing a wire through the needle and inducing cardiac ectopy. After confirming access, a sheath was introduced into the pericardial space over the wire. A 12.5 µg/mL RTX solution was prepared by first creating a stock solution of 0.1 mg/mL by dissolving 0.5 mg of RTX powder in 2.5 mL of dimethyl sulfoxide and 2.5 mL of 0.9% sodium chloride, and then diluting the stock solution to 12.5 µg/mL by adding 1.87 mL of it to 13.13 mL of 0.9% sodium chloride. […]

In the case of `C=C(C)[C@]12C[C@@H](C)[C@@]34O[C@](Cc5ccccc5)(O[C@@H]1[C@@H]3C=C(COC(=O)Cc1ccc(O)c(OC)c1)C[C@]1(O)C(=O)C(C)=C[C@@H]41)O2` [RTX, resiniferatoxin], the “blood pressure change from baseline (FIG. 2B, FIG. 2C)” value is reported as “significant increase” and the “heart rate change from baseline (FIG. 2A)” value is reported as “significant increase”.
